Measurements from ChEMBL document CHEMBL3856237, “Synthesis and antinociceptive activity of new 2-substituted 4-(trifluoromethyl)-5,6-dihydrobenzo[h]quinazolines” (Bioorg Med Chem Lett, 2016).
The source made the active and inactive calls.

Key:
Mus musculus [1] = experiment: Toxicity in Swiss mouse assessed as effect on spontaneous locomotory activity by measuring number of areas crossed at 100 mg/kg administered via oral gavage for 1 hr measured up to 5 mins post dose by open field test (reference value: 27 +/- 6 ); type: organism-based; settings: in vivo
Mus musculus [2] = experiment: Toxicity in Swiss mouse assessed as effect on forced locomotory activity at 100 mg/kg administered via oral gavage for 1 hr measured up to 4 mins post dose by rotarod test; type: organism-based; settings: in vivo
Mus musculus [3] = experiment: Antinociceptive activity in Swiss mouse assessed as inhibition of capsaicin induced nociception by measuring paw licking time at 100 mg/kg administered via oral gavage for 1 hr followed by capsaicin challenge measured for 5 mins post dose relative to control; type: functional
Mus musculus [4] = experiment: Antinociceptive activity in CFA-induced arthritic pain Swiss mouse model assessed as inhibition of mechanical hyperalgesia by measuring paw withdrawal threshold at 100 mg/kg administered via oral gavage measured at 2 hrs post dose by Von Frey filament assay relative to control; type: functional
Mus musculus [5] = experiment: Antinociceptive activity in CFA-induced arthritic pain Swiss mouse model assessed as inhibition of mechanical hyperalgesia by measuring paw withdrawal threshold at 100 mg/kg administered via oral gavage measured up to 4 hrs post dose by Von Frey filament assay; type: functional, organism-based
Mus musculus [6] = experiment: Antinociceptive activity in CFA-induced arthritic pain Swiss mouse model assessed as inhibition of mechanical hyperalgesia by measuring paw withdrawal threshold administered via oral gavage measured at 2 hrs post dose by Von Frey filament assay; type: functional; settings: for ED50: read-out: ID50 (the source's name); for minimal effective dose: read-out: MED
Mus musculus [7] = experiment: Antinociceptive activity in CFA-induced arthritic pain Swiss mouse model assessed as inhibition of mechanical hyperalgesia by measuring paw withdrawal threshold at 300 mg/kg administered via oral gavage measured at 2 hrs post dose by Von Frey filament assay relative to control; type: functional
[8] = Solubility of the compound in DMSO; type: physicochemical
Mus musculus [9] = experiment: Antinociceptive activity in CFA-induced arthritic pain Swiss mouse model assessed as inhibition of mechanical hyperalgesia by measuring paw withdrawal threshold at 100 mg/kg administered via oral gavage measured up to 2 hrs post dose by Von Frey filament assay; type: functional, organism-based

| solubility [8] | Compound | Activity (Mus musculus [1]) | Activity (Mus musculus [2]) | inhibition in vivo at 100 mg/kg (Mus musculus [3]) | Imax (Mus musculus [4]) | inhibition (Mus musculus [5]) | ED50 (Mus musculus [6]) | minimal effective dose (Mus musculus [6]) | Imax (Mus musculus [7]) | inhibition (Mus musculus [9]) |
| --- | --- | --- | --- | --- | --- | --- | --- | --- | --- | --- |
| Insoluble | Cc1nc2c(c(C(F)(F)F)n1)CCc1ccccc1-2 |  |  |  |  |  |  |  |  |  |
| Soluble | FC(F)(F)c1nc(-c2ccccc2)nc2c1CCc1ccccc1-2 | 25 | Non-Toxic | 65% | 64 - 71% |  | 241 mg/kg | 100 mg/kg |  | Active |
| Soluble | FC(F)(F)c1nc(-n2cccc2)nc2c1CCc1ccccc1-2 | 23 | Non-Toxic | 67% |  |  |  |  |  |  |

Continued, compound first:

| Compound | solubility [8] | Activity (Mus musculus [1]) | Activity (Mus musculus [2]) | inhibition in vivo at 100 mg/kg (Mus musculus [3]) | Imax (Mus musculus [4]) | inhibition (Mus musculus [5]) | ED50 (Mus musculus [6]) | minimal effective dose (Mus musculus [6]) | Imax (Mus musculus [7]) | inhibition (Mus musculus [9]) |
| --- | --- | --- | --- | --- | --- | --- | --- | --- | --- | --- |
| Nc1nc2c(c(C(F)(F)F)n1)CCc1ccccc1-2 |  | 22 | Non-Toxic |  |  |  |  |  |  |  |
| CSc1nc2c(c(C(F)(F)F)n1)CCc1ccccc1-2 |  | 23 | Non-Toxic |  |  |  |  |  |  |  |
| CC(C(=O)O)c1cccc(C(=O)c2ccccc2)c1 (stereo unspecified) [KETOPROFEN] |  | 38 | Non-Toxic | 81% | 70% | Active | 144 mg/kg | 100 to 300 mg/kg | 75% |  |
| FC(F)(F)c1ncnc2c1CCc1ccccc1-2 | Insoluble |  |  |  |  |  |  |  |  |  |
